IC50 data for 16 compounds are collected here from patent US6455550B1, “N-alkanoylphenylalanine derivatives” (Hoffmann-La Roche Inc., priority 1997, dated 2002).

pIC50: −log10 of the molar value. Where two headings read alike, the source gives them in different places.

Broadly, the pIC50 is the IC50 on a negative log10 scale, so that one unit is a factor of ten. The term IC50 denotes the point on the concentration scale where inhibition reaches its midpoint.

For assay [1], the target named is T1, cell-surface VLA-4 (α4β1 integrin) on Ramos cells binding to immobilized VCAM-1 (Homo sapiens, UniProt P05556+P13612).
T1 construct: Ramos cells bearing cell-surface VLA-4; endogenous in cells; host or cells: Ramos cells (VLA-4); VCAM-1 purified from CHO cell culture media
Nature of the assay: Ramos (VLA-4)/VCAM-1 Cell-Based Screening Assay (cell adhesion). Particulars: for IC50: IC50 in Ramos Cell Based Assay (nM). From the text:
Calcein-AM was purchased from Molecular Probes Inc.
VLA-4 (α4β1 integrin) antagonist activity, defined as ability to compete with cell-surface VLA-4 for binding to immobilized VCAM-1, was quantitated using a Ramos-VCAM-1 cell adhesion assay. Ramos cells bearing cell-surface VLA-4, were labeled with a fluorescent dye (Calcein-AM) and allowed to bind VCAM-1 in the presence or absence of test compounds.
Initially, this entailed coating 96 well plates (Nunc Maxisorp) with recombinant human VCAM-1 (100 ng in 100 μl PBS), sealing each plate and allowing the plates to stand at 4° C for Å18 hr. The VCAM-coated plates were subsequently washed twice with 0.05% Tween-20 in PBS, and then blocked for 1hr (room temperature) with 200 μl of Blocking Buffer (1% BSA/0.02% thimerosal) to reduce non-specific binding. Following the incubation with Blocking Buffer, plates were inverted, blotted and the remaining buffer aspirated. Each plate was then washed with 300 μl PBS, inverted and the remaining PBS aspirated.
Test compounds were dissolved in 100% DMSO and then diluted 1:25 in VCAM Cell Adhesion Assay Buffer (4 mM CaCl2, 4 mM MgCl2 in 50 mM TRIS-HCl, pH 7.5) (final DMSO=4%). […] 100 μl/well of each dilution was added to the VCAM-coated plates, followed by 100 μl of Ramos cells (200,000 cells/well in 1% BSA/PBS). […] Plates were inverted to remove non-adherent cells, blotted and 300 μl/well PBS added. Plates were again inverted, blotted and the remaining buffer gently aspirated. 100 μl Lysis Buffer (0.1% SDS in 50 mM TRIS-HCl, pH 8.5) was added to each well and agitated for 2 min on a rotary shaking platform.

Assay [2] concerns the target T2, VLA-4 (α4β1 integrin) binding to immobilized VCAM-1 (Homo sapiens, UniProt P05556+P13612).
T2 construct: followed by 10 μl of Ramos cell-derived VLA-4; endogenous in cells; host or cells: Ramos cells (VLA-4 preparation derived from the cells)
Nature of the assay: VLA-4/VCAM-1 Screening Assay (solid-phase, dual antibody ELISA). Particulars: for IC50: IC50 nM. Here is the method: VLA-4 antagonist activity, defined as ability to compete for binding to immobilized VCAM-1 was quantitated using a solid-phase, dual antibody ELISA. VLA-4 (α4β1 integrin) bound to VCAM-1 was detected by a complex of anti-integrin β1 antibody: HRP-conjugated anti-mouse IgG: chromogenic substrate (K-Blue). Initially, this entailed coating 96 well plates (Nunc Maxisorp) with recombinant human VCAM-1 (0.4 μg in 100 μl PBS), sealing each plate and then allowing the plates to stand at 4° C for Å18 hr. […] On the day of assay, all plates were washed twice with VCAM Assay Buffer (200 μl/well of 50 mM Tris-HCl, 100 mM NaCl, 1 mM MnCl2, 0.05% Tween 20; pH 7.4). Test compounds were dissolved in 100% DMSO and then diluted 1:20 in VCAM Assay Buffer supplemented with 1 mg/mL BSA (i.e., final DMSO=5%). […] 100 μl per well of each dilution was added to the VCAM-coated plates, followed by 10 μl of Ramos cell-derived VLA-4. These plates were sequentially mixed on a platform shaker for 1 min, incubated for 2 hr at 37° C. and then washed four times with 200 μl/well VCAM Assay Buffer. 100 μl of mouse anti-human integrin β1 antibody was added to each well (0.6 μg/mL in VCAM Assay Buffer+1 mg/mL BSA) and allowed to incubate for 1 hr at 37° C. At the conclusion of this incubation period, all plates were washed four times with VCAM Assay Buffer (200 μl/well). A corresponding second antibody, HRP-conjugated goat anti-mouse IgG (100 μl per well @1:800 dilution in VCAM Assay Buffer+1 mg/mL BSA), was then added to each well, followed by a 1 hr incubation at room temperature and concluded by three washes (200 μl/well) with VCAM Assay Buffer. Color development was initiated by addition of 100 μl K-Blue per well (15 min incubation, room temp) and terminated by addition of 100 μl Red Stop Buffer per well. […] Results were calculated as % inhibition of total binding (i.e., VLA-4+VCAM-1 in the absence of test compound).
Background: In an ELISA, binding on a coated surface is turned into a signal by an enzyme label.

The mark [3] stands for this setting: Calcein-AM labeled Ramos cells, VCAM-1 coated plates, 45 min at room temperature, read-out: IC50 in Ramos Cell Based Assay.
The mark [4] stands for this setting: Ramos cell-derived VLA-4, recombinant human VCAM-1 coated plates, 2 hr at 37° C., read-out: IC50.
Setting [5] is: Ramos cell-derived VLA-4, recombinant human VCAM-1 coated plates, 2 hr at 37° C.
Setting [6] is: Calcein-AM labeled Ramos cells, VCAM-1 coated plates, 45 min at room temperature.

T1 sequence (P13612 34-1032): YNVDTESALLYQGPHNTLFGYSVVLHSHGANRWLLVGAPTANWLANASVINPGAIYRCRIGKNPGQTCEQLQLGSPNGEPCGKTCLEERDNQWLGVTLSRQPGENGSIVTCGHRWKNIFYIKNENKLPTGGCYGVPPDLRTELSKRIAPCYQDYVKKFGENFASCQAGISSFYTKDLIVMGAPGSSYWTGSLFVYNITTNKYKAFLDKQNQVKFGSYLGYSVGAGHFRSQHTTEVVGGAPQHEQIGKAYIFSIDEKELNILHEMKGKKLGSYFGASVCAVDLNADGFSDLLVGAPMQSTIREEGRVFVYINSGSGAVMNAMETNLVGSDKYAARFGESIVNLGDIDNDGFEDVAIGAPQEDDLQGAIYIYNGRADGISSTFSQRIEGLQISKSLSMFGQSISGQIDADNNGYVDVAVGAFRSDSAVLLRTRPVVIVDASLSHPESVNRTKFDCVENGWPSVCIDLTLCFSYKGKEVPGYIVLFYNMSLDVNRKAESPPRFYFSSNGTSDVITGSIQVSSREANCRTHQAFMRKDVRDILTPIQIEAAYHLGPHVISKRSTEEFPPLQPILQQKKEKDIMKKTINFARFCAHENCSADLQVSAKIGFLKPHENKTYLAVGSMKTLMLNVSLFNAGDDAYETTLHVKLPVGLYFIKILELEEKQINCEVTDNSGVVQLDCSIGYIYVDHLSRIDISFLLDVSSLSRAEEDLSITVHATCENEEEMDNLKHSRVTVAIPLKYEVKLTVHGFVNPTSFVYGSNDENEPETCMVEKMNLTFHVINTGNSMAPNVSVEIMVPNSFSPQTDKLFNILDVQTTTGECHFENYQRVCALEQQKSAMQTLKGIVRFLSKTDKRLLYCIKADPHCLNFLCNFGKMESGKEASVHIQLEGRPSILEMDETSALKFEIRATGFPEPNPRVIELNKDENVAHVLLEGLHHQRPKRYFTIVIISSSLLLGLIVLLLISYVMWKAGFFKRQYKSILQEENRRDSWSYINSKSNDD
T1 sequence (P05556 21-798): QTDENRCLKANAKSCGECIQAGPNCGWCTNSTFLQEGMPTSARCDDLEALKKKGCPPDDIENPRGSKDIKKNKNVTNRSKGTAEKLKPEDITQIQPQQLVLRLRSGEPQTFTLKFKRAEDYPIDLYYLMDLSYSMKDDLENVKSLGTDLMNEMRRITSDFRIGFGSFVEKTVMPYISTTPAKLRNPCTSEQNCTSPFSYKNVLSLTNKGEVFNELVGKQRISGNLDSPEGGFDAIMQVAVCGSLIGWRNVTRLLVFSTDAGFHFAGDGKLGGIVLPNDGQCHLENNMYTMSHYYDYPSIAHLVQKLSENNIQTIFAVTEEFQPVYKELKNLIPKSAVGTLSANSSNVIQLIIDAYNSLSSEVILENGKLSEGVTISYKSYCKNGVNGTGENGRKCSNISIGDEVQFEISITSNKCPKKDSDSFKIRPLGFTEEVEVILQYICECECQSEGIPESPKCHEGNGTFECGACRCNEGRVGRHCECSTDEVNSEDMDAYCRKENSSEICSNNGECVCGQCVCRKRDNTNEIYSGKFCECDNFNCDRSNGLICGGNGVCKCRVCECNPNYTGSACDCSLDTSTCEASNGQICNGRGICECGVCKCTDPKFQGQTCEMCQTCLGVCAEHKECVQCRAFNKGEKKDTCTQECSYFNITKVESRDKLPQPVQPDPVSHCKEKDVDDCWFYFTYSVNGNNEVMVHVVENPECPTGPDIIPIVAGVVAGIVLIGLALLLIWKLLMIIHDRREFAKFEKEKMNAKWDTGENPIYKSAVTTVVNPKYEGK
T2 sequence (P13612 34-1032): as the sequence (P13612 34-1032) above
T2 sequence (P05556 21-798): as the sequence (P05556 21-798) above

Turning to `COc1ccc(CC2(C(=O)N[C@@H](Cc3ccc(NC(=O)c4c(Cl)cccc4Cl)cc3)C(=O)O)CCCC2)cc1` [Example 43, 4-[[(2,6-Dichlorophenyl)carbonyl]amino]-N-[[1-[(4-methoxyphenyl)methyl]cyclopentyl]carbonyl]-L-phenylalanine], the pIC50 in assay [1] (setting [3]) is 7.44; in assay [2] (setting [4]), 9.20.

As to `Cn1nnnc1-c1ccc(CC2(C(=O)N[C@@H](Cc3ccc(NC(=O)c4c(Cl)cccc4Cl)cc3)C(=O)O)CCCC2)cc1` [Example 55], the negative logarithm of the IC50 (pIC50) in assay [1] (setting [3]) was 7.73. In assay [2] (setting [5]), the IC50 worked out at 0.47 nM.

For `Cn1nnnc1-c1cccc(CC2(C(=O)N[C@@H](Cc3ccc(NC(=O)c4c(Cl)cccc4Cl)cc3)C(=O)O)CCC2)c1` [Example 56], the negative-log IC50 (pIC50) in assay [1] (setting [3]) was 7.50; in assay [2] (setting [4]), 9.03.

For the compound `Cn1nnnc1-c1ccc(CC2(C(=O)N[C@@H](Cc3ccc(NC(=O)c4c(Cl)cccc4Cl)cc3)C(=O)O)CCC2)cc1` [Example 57], the figures for the concentration for half-maximal inhibition (IC50) in assay [1] (setting [6]) and in assay [2] (setting [5]) were 27 nM and 0.42 nM, respectively.

On to `[N-]=[N+]=NCCC1(C(=O)N[C@@H](Cc2ccc(NC(=O)c3c(Cl)cccc3Cl)cc2)C(=O)O)CCCC1` [Example 58], for which the half-maximal inhibitory concentration (IC50) in assay [1] (setting [6]) is 47 nM. In addition, the negative logarithm of the IC50 (pIC50) in assay [2] (setting [4]) is 9.24.

Take `COc1ccc(CC2(C(=O)N[C@@H](Cc3ccc(NC(=O)c4c(Cl)cccc4Cl)cc3)C(=O)O)CCCC2)cc1` [Example 95]: the negative logarithm of the IC50 (pIC50) is 7.46 in assay [1] (setting [3]) and 9.16 in assay [2] (setting [4]).

On to `Cc1cc([N+](=O)[O-])ccc1C(=O)Nc1ccc(C[C@H](NC(=O)C2(C)CC2(Cl)Cl)C(=O)O)cc1` (some centres unmarked) [Example 100], for which the negative-log IC50 (pIC50) in assay [1] (setting [3]) was 7.26; in assay [2] (setting [4]), 9.59.

For the compound `O=C(NCCC1(C(=O)N[C@@H](Cc2ccc(NC(=O)c3c(Cl)cccc3Cl)cc2)C(=O)O)CCCC1)c1ccno1` [Example 158], the values for the negative logarithm of the IC50 (pIC50) in assay [1] (setting [3]) and in assay [2] (setting [4]) were 6.91 and 8.30, respectively.

Regarding `O=C(Nc1ccc(C[C@H](NC(=O)C2(CCNC(=O)C3CCCN3C(=O)C(F)(F)F)CCCC2)C(=O)O)cc1)c1c(Cl)cccc1Cl` (some centres unmarked) [Example 159], the pIC50 in assay [1] (setting [3]) was 6.50; in assay [2] (setting [4]) it was 8.19.

For the compound `O=C(NCCC1(C(=O)N[C@@H](Cc2ccc(NC(=O)c3c(Cl)cccc3Cl)cc2)C(=O)O)CCCC1)c1ccncc1` [Example 160], the pIC50 in assay [1] is 6.48; in assay [2], 8.24.

Regarding `COCC(=O)NCCC1(C(=O)N[C@@H](Cc2ccc(NC(=O)c3c(Cl)cccc3Cl)cc2)C(=O)O)CCCC1` [Example 162], the pIC50 is 7.64 in assay [1] (setting [3]) and 8.92 in assay [2] (setting [4]).

For `COC(=O)CCC(=O)NCCC1(C(=O)N[C@@H](Cc2ccc(NC(=O)c3c(Cl)cccc3Cl)cc2)C(=O)O)CCCC1` [Example 163], the figures for the negative-log IC50 (pIC50) in assay [1] (setting [3]) and in assay [2] (setting [4]) were 7.07 and 8.62, respectively.

Turning to `CNC(=O)NCCC1(C(=O)N[C@@H](Cc2ccc(NC(=O)c3c(Cl)cccc3Cl)cc2)C(=O)O)CCCC1` [Example 187, 4-[[(2,6-Dichlorophenyl)carbonyl]amino]-N-[[1-[2-[[(methylamino)carbonyl]amino]ethyl]cyclopentyl]carbonyl]-L-phenylalanine], the pIC50 in assay [1] (setting [3]) was 8.24; in assay [2] (setting [4]), 9.59.

As to `C/N=C(\S)NCCC1(C(=O)N[C@@H](Cc2ccc(NC(=O)c3c(Cl)cccc3Cl)cc2)C(=O)O)CCCC1` [Example 192], the IC50 in assay [1] (setting [6]) was 22 nM; in assay [2] (setting [5]), 0.14 nM.

As for `COC(=O)NCCC1(C(=O)N[C@@H](Cc2ccc(NC(=O)c3c(Cl)cccc3Cl)cc2)C(=O)O)CCCC1` [Example 193], the pIC50 was 7.40 in assay [1] (setting [3]) and 9.26 in assay [2] (setting [4]).

As for `CC(=O)N(C)CCC1(C(=O)N[C@@H](Cc2ccc(NC(=O)c3c(Cl)cccc3Cl)cc2)C(=O)O)CCCC1` [Example 200, 4-[[(2,6-Dichlorophenyl)carbonyl]amino]-N-[[1-[2-[(acetyl)(methyl)amino]ethyl]cyclopentyl]carbonyl]-L-phenylalanine], the pIC50 in assay [1] (setting [3]) was 7.72; in assay [2] (setting [4]), 9.09.
